What was measured:
Assay type in all cases: in vivo
[1] = tested on: barnyardgrass (Echinochloa crus-galli); assay: Test A preemergence soil spray, visual injury rating 0-100; conditions: 10 days
In short: (§1)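 Scale 0–100 (no effect to complete control), visual, versus untreated controls, read 10 days after application. Application: preemergence directed spray onto seeded loam–sand soil, or postemergence to young plants; formulation in non-phytotoxic solvent with surfactant.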

[2] = tested on: blackgrass (Alopecurus myosuroides); assay: as above; conditions: 10 days
In short: as §1

corn (Zea mays) [3] = assay: as above; conditions: 10 days
In short: as §1

[4] = tested on: green foxtail (Setaria viridis); assay: as above; conditions: 10 days
In short: as §1

kochia (Bassia scoparia) [5] = assay: as above; conditions: 10 days
In short: as §1

[6] = tested on: oat, wild (wild oat, Avena fatua); assay: as above; conditions: 10 days
In short: as §1

[7] = tested on: palmer (palmer amaranth, palmer pigweed, Amaranthus palmeri); assay: as above; conditions: 10 days
In short: as §1

[8] = tested on: ragweed (common ragweed, Ambrosia artemisiifolia); assay: as above; conditions: 10 days
In short: as §1

[9] = tested on: ryegrass, Italian (italian ryegrass, Lolium multiflorum); assay: as above; conditions: 10 days
In short: as §1

soybean (Glycine max) [10] = assay: as above; conditions: 10 days
In short: as §1

[11] = tested on: wheat (Triticum aestivum); assay: as above; conditions: 10 days
In short: as §1

[12] = tested on: barnyardgrass (Echinochloa crus-galli); assay: Test A postemergence application, visual injury rating 0-100
In short: as §1

[13] = tested on: blackgrass (Alopecurus myosuroides); assay: as above
In short: as §1

corn (Zea mays) [14] = assay: as above
In short: as §1

[15] = tested on: galium (catchweed bedstraw, Galium aparine); assay: as above
In short: as §1

[16] = tested on: green foxtail (Setaria viridis); assay: as above
In short: as §1

[17] = tested on: horseweed (Erigeron canadensis); assay: as above
In short: as §1

kochia (Bassia scoparia) [18] = assay: as above
In short: as §1

[19] = tested on: oat, wild (wild oat, Avena fatua); assay: as above
In short: as §1

[20] = tested on: palmer (palmer amaranth, palmer pigweed, Amaranthus palmeri); assay: as above
In short: as §1

[21] = tested on: ragweed (common ragweed, Ambrosia artemisiifolia); assay: as above
In short: as §1

[22] = tested on: ryegrass, Italian (italian ryegrass, Lolium multiflorum); assay: as above
In short: as §1

soybean (Glycine max) [23] = assay: as above
In short: as §1

[24] = tested on: wheat (Triticum aestivum); assay: as above
In short: as §1

[25] = tested on: barnyardgrass (Echinochloa crusgalli); assay: Test B flooded paddy test, visual plant response rating 0-100; conditions: 250 g ai/ha, Flood, applied to paddy water, evaluated after 13 days
In short: (§2)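 Plants were grown to the 2-leaf stage, then pots were flooded to 3 cm above the soil and compound was applied directly to the paddy water, with that depth kept throughout.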

[26] = tested on: ducksalad (Heteranthera limosa); assay: as above; conditions: 250 g ai/ha, Flood, applied to paddy water, evaluated after 13 days
In short: as §2

rice (Oryza sativa) = assay: as above; conditions: 250 g ai/ha, Flood, applied to paddy water, evaluated after 13 days
In short: as §2

[27] = tested on: sedge, umbrella (small-flower umbrella sedge, Cyperus difformis); assay: as above; conditions: 250 g ai/ha, Flood, applied to paddy water, evaluated after 13 days
In short: as §2

[28] = 62 g ai/ha, 0 = no effect, 100 = complete control
[29] = 62 g ai/ha, postemergence, 10 days, 0 = no effect, 100 = complete control
[30] = Postemergence, 16 g ai/ha, greenhouse 10 days, 0 no effect, 100 complete control

CC(C)OC(=O)C1=CCC(NC(=O)C2(C)CN(c3cc(F)cc(F)c3)C(=O)O2)C1 (stereo not shown) [Compound 100]
100: Barnyardgrass plant response rating (0-100) [1, 28] | Foxtail, Green plant response rating (0-100) [4, 28] | Kochia plant response rating (0-100) (kochia (Bassia scoparia) [5]; [28]) | Pigweed, Palmer plant response rating (0-100) [7, 28] | Barnyardgrass plant response rating (0-100) [12, 29] | Corn plant response rating (0-100) (corn (Zea mays) [14]; [29]) | Corn plant response rating (0 to 100 scale) (corn (Zea mays) [14]; [30]) | Oat, Wild plant response rating (0-100) [19, 29]
0: Blackgrass plant response rating ([2]; 16 g ai/ha, 0 to 100 scale) | Kochia plant response rating (kochia (Bassia scoparia) [5]; 16 g ai/ha, 0 to 100 scale) | Oat, Wild plant response rating ([6]; 16 g ai/ha, 0 to 100 scale) | Oat, Wild plant response rating (0-100) [6, 28] | Ragweed plant response rating ([8]; 16 g ai/ha, 0 to 100 scale) | Ragweed plant response rating (0-100) [8, 28] | Soybean plant response rating (soybean (Glycine max) [10]; 16 g ai/ha, 0 to 100 scale) | Horseweed plant response rating (0 to 100 scale) [17, 30] | Ragweed plant response rating (0 to 100 scale) [21, 30]
40: Soybean plant response rating (0-100) (soybean (Glycine max) [10]; [28]) | Horseweed plant response rating (0-100) [17, 29] | Ragweed plant response rating (0-100) [21, 29]
80: Foxtail, Green plant response rating ([4]; 16 g ai/ha, 0 to 100 scale) | Ryegrass, Italian plant response rating (0-100) [9, 28] | Foxtail, Green plant response rating (0 to 100 scale) [16, 30] | Kochia plant response rating (0 to 100 scale) (kochia (Bassia scoparia) [18]; [30]) | Pigweed, Palmer plant response rating (0-100) [20, 29] | Wheat plant response rating (0-100) [24, 29]
20: Pigweed, Palmer plant response rating (0 to 100 scale) [20, 30]
75: Plant response rating, Ducksalad (0 to 100 scale, 0 is no effect and 100 is complete control) [26]
60: Blackgrass plant response rating (0-100) [2, 28] | Ryegrass, Italian plant response rating ([9]; 16 g ai/ha, 0 to 100 scale) | Blackgrass plant response rating (0 to 100 scale) [13, 30] | Soybean plant response rating (0 to 100 scale) (soybean (Glycine max) [23]; [30])
70: Galium plant response rating (0 to 100 scale) [15, 30] | Oat, Wild plant response rating (0 to 100 scale) [19, 30] | Ryegrass, Italian plant response rating (0 to 100 scale) [22, 30] | Soybean plant response rating (0-100) (soybean (Glycine max) [23]; [29]) | Wheat plant response rating (0 to 100 scale) [24, 30] | Plant response rating, Barnyardgrass (0 to 100 scale, 0 is no effect and 100 is complete control) [25] | Plant response rating, Rice (0 to 100 scale, 0 is no effect and 100 is complete control) (rice (Oryza sativa))
50: Wheat plant response rating ([11]; 16 g ai/ha, 0 to 100 scale) | Barnyardgrass plant response rating (0 to 100 scale) [12, 30]
95: Plant response rating, Sedge, Umbrella (0 to 100 scale, 0 is no effect and 100 is complete control) [27]
30: Barnyardgrass plant response rating ([1]; 16 g ai/ha, 0 to 100 scale) | Corn plant response rating (corn (Zea mays) [3]; 16 g ai/ha, 0 to 100 scale) | Corn plant response rating (0-100) (corn (Zea mays) [3]; [28])
90: Pigweed, Palmer plant response rating ([7]; 16 g ai/ha, 0 to 100 scale) | Wheat plant response rating (0-100) [11, 28] | Blackgrass plant response rating (0-100) [13, 29] | Galium plant response rating (0-100) [15, 29] | Foxtail, Green plant response rating (0-100) [16, 29] | Kochia plant response rating (0-100) (kochia (Bassia scoparia) [18]; [29]) | Ryegrass, Italian plant response rating (0-100) [22, 29]

— patent US20260285850A1, “SUBSTITUTED OXAZOLIDINONES AND IMIDAZOLINONES AS HERBICIDES” (FMC CORPORATION, priority 2023, published 2026)
